# Results reported in patent publication US20220356472A1, “METHODS AND COMPOSITIONS FOR TYPE 2 DIABETES THERAPY” (Sanford Burnham Prebys Medical Discovery Institute, priority 2019, published 2022).
# Assays:
# Assay type in all cases: cell-based, mouse
# [1] = system: islets isolated from WT C57BL/6 mice; experiment: Gene expression in isolated islets treated with compounds
# Description: For this purpose, the effect of a membrane-permeable intracellular Ca^2+-chelator, BAPTA-AM was tested on islets isolated from WT C57BL/6 mice. An overnight incubation with BAPTA-AM (10 μM) reduced both Ins1 and Ins2 mRNA levels (FIG. 6A, “Insulin” panel, Ctrl versus BAPTA-AM). […] On the other hand, tunicamycin (Tm, 0.5 μg/mL) in combination with BAPTA-AM rescued both Ins1 and Ins2 mRNA levels. Concomitantly, Chop and sXBP1 mRNAs, as well as MP mRNA were induced by Tm treatment (FIG. 6A, BAPTA-AM columns versus BAPTA/Tm columns).
# [2] = system: islets isolated from WT C57BL/6 mice; experiment: as above; conditions: HFn 50 nM, vs Ctrl
# WT and Chop βKO islets = experiment: Ins1/Ins2 transcription in independent batch of islets treated with tunicamycin; conditions: tunicamycin 5 μg/mL
# [3] = BAPTA-AM 10 μM, overnight incubation, vs Ctrl
# [4] = Tm 0.5 μg/mL in combination with BAPTA-AM, vs BAPTA-AM
molecule,measurement,setting,value
CC(=O)OCOC(=O)CN(CC(=O)OCOC(C)=O)c1ccccc1OCCOc1ccccc1N(CC(=O)OCOC(C)=O)CC(=O)OCOC(C)=O [BAPTA-AM],Chop level,[1]; [3],reduced
same,Ins1 mRNA level,[1]; [3],reduced
same,Ins2 mRNA level,[1]; [3],reduced
same,sXBP1 level,[1]; [3],reduced
O=C(CC1NCCCC1O)Cn1cnc2cc(Br)c(Cl)cc2c1=O (centres unmarked) [halofuginone],ATF4 induction,[2],pronounced ATF4 and Chop induction
same,Chop induction,[2],pronounced ATF4 and Chop induction
same,Ins1 mRNA,[2],reduced
same,Ins2 mRNA,[2],reduced
tunicamycin,Ins1/Ins2 transcription,WT and Chop βKO islets,positive regulation
same,Chop mRNA,[1]; [4],induced
same,Ins1 mRNA level,[1]; [4],rescued
same,Ins2 mRNA level,[1]; [4],rescued
same,MP mRNA,[1]; [4],induced
same,sXBP1 mRNA,[1]; [4],induced
